The values that follow come from DBAASP.

In brackets after ≈: the same amount, converted by molar mass.

Test systems include Staphylococcus aureus; Escherichia coli DC2; Escherichia coli UB1005.
Holding throughout (test): ≥ marks a high value that may be exact or a test limit, other limits are often not marked, values filed in µg/mL are converted to µM
Test [1] deals with Staphylococcus aureus ATCC 25923.
In test [2] the test system is Bacillus subtilis ATCC 6633.
The test system of test [3] is Candida albicans ATCC 20032.
Test [4] has as its system Escherichia coli ATCC 25922.
The subject of test [5] is Streptococcus gordonii Challis DL1.
Test [6] relates to Pseudomonas aeruginosa PAK.
Test [7] concerns Streptococcus mutans UA159.
Test [8] has as its system Streptococcus mitis ATCC 903.
For test [9], the system named is Streptococcus sanguinis NY101.
Test [10] has as its system Candida albicans ATCC 90028.
For test [11], the system named is Enterobacter cloacae NHTCC 53001.
Test [12] relates to Pseudomonas aeruginosa ATCC 27853.
For test [13], the system named is Staphylococcus aureus NCTC 8325.
The test system of test [14] is Staphylococcus epidermidis RP62A.
For test [15], the system named is Proteus mirabilis ATCC 25933.
In test [16] the test system is Enterococcus faecalis ATCC 29212.
Test [17] has as its system Klebsiella pneumoniae KK3 9904.
In test [18] the test system is Corynebacterium xerosis C875.
Test [19] has as its system Staphylococcus epidermidis C621.
In test [20] the test system is Klebsiella pneumoniae ATCC 10031.
Test [21] deals with Shigella dysenteriae ATCC 9752.
In test [22] the test system is Micrococcus luteus ATCC 10240.
Test [23] concerns Staphylococcus aureus ATCC 6538P.
Test [24] has as its system Staphylococcus epidermidis ATCC 12228.
Test [25] relates to Salmonella enterica subsp. enterica serovar Typhimurium ATCC 14028.

For `CC[C@H](C)[C@@H]1NC(=O)[C@H](CO)NC(=O)[C@H](CCCCN)NC(=O)[C@H]([C@@H](C)O)NC(=O)[C@H](Cc2c[nH]c3ccccc23)NC(=O)[C@@H](NC(=O)CNC(=O)[C@H](CCCN=C(N)N)NC(=O)[C@H](CC(C)C)NC(=O)[C@H](C)NC(=O)[C@H](C)N)CSSC[C@@H](C(=O)N2CCC[C@H]2C(=O)NCC(=O)N[C@@H](CCCCN)C(=O)N[C@@H](CCCN=C(N)N)C(=O)O)NC(=O)[C@@H]2CCCN2C(=O)[C@H](CCCCN)NC(=O)[C@@H]2CCCN2C(=O)[C@@H]2CCCN2C1=O` [AALRGCWTKSIPPKPCPGKR], the MIC in [1] is 5.8 µM (≈ 12.6 µg/mL); in test [2], no less than 46.2 µM; in test [3] it was no less than 46.2 µM; in test [4], 46.2 µM (≈ 100 µg/mL).
Consider `CC[C@H](C)[C@H](NC(=O)[C@H](Cc1ccccc1)NC(=O)[C@H](Cc1cnc[nH]1)NC(=O)[C@H](CCCCN)NC(=O)[C@@H](NC(=O)[C@@H](N)Cc1ccccc1)[C@@H](C)CC)C(=O)N[C@@H](Cc1cnc[nH]1)C(=O)N[C@@H](CCCN=C(N)N)C(=O)N[C@@H](Cc1ccccc1)C(=O)N[C@@H](CO)C(=O)NCC(=O)NCC(=O)N[C@@H](CC(C)C)C(=O)N[C@@H](CCC(N)=O)C(=O)N[C@@H](CC(C)C)C(=O)N[C@@H](CC(C)C)C(=O)N[C@@H](CCCCN)C(=O)N[C@@H](CCC(N)=O)C(=O)N[C@@H](CC(C)C)C(=O)N[C@@H](CC(C)C)C(=O)N[C@@H](CCCCN)C(=O)N[C@@H](CC(C)C)C(=O)N[C@@H](CC(C)C)C(=O)N[C@@H](CCCCN)C(=O)N[C@@H](CCC(N)=O)C(=O)N[C@@H](Cc1ccccc1)C(N)=O` [FIKHFIHRFSGGLQLLKQLLKLLKQF], for which the MIC turned out to be 2.54 µM (≈ 8 µg/mL) in [5]; 10.1 µM (≈ 32 µg/mL) in [6]; 10.1 µM (≈ 32 µg/mL) in the test on Staphylococcus aureus; 5.07 µM (≈ 16 µg/mL) in test [7]; 19.8 µM (≈ 62.5 µg/mL) in test [8]; 10.1 µM (≈ 32 µg/mL) in test [9].
With `CC[C@H](C)[C@H](NC(=O)[C@H](Cc1cnc[nH]1)NC(=O)CNC(=O)[C@H](C)NC(=O)[C@@H](NC(=O)[C@@H](NC(=O)[C@H](CCCCN)NC(=O)[C@@H](NC(=O)[C@H](Cc1ccccc1)NC(=O)[C@H](C)NC(=O)[C@H](CCCCN)NC(=O)[C@H](C)NC(=O)[C@H](C)NC(=O)CNC(=O)[C@H](CCCCN)NC(=O)[C@H](CC(C)C)NC(=O)[C@@H](NC(=O)[C@H](CC(=O)O)NC(=O)[C@H](CCCN=C(N)N)NC(=O)[C@H](Cc1ccccc1)NC(=O)CN)C(C)C)C(C)C)[C@@H](C)O)C(C)C)C(=O)N[C@@H](C)C(=O)N[C@@H](CC(N)=O)C(N)=O` [GFRDVLKGAAKAFVKTVAGHIAN], the minimal inhibitory concentration (MIC) is no less than 100 µM in test [10]; 6 µM (≈ 14.2 µg/mL) in test [11]; 25 µM (≈ 59.2 µg/mL) in test [12]; 32 µM (≈ 75.8 µg/mL) in the test with Staphylococcus aureus; no less than 100 µM in test [13]; no less than 50 µM in [14]. Also, the MIC in [15] is no less than 100 µM; in test [4] it was 3 µM (≈ 7.11 µg/mL); in test [16], greater than 100 µM; in [17] it was 6 µM (≈ 14.2 µg/mL).
`CC[C@H](C)[C@H](NC(=O)CN)C(=O)NCC(=O)NCC(=O)N[C@H](C(=O)N[C@@H](CC(C)C)C(=O)N[C@@H](CC(C)C)C(=O)N[C@@H](CO)C(=O)N[C@@H](C)C(=O)NCC(=O)N[C@@H](CCCCN)C(=O)N[C@@H](C)C(=O)N[C@@H](C)C(=O)N[C@@H](CC(C)C)C(=O)N[C@@H](CCCCN)C(=O)NCC(=O)N[C@@H](CC(C)C)C(=O)N[C@H](C(=O)N[C@@H](CCCCN)C(=O)N[C@H](C(=O)N[C@@H](CC(C)C)C(=O)N[C@@H](C)C(=O)N[C@@H](CCC(=O)O)C(=O)N[C@@H](CCCCN)C(=O)N[C@@H](Cc1ccc(O)cc1)C(=O)N[C@@H](C)C(=O)N[C@@H](CC(N)=O)C(N)=O)C(C)C)[C@@H](C)O)C(C)C` [GIGGVLLSAGKAALKGLTKVLAEKYAN]: the minimal inhibitory concentration (MIC) is 7.11 µM (≈ 18.8 µg/mL) in test [1], no less than 37.8 µM in [2], no less than 37.8 µM in test [3] and greater than 37.8 µM in test [4].
Regarding `CC[C@H](C)[C@H](NC(=O)CN)C(=O)N[C@@H](CC(C)C)C(=O)N[C@@H](CO)C(=O)N[C@@H](CO)C(=O)N[C@@H](Cc1ccccc1)C(=O)N[C@@H](CCCCN)C(=O)NCC(=O)N[C@H](C(=O)N[C@@H](C)C(=O)N[C@@H](CCCCN)C(=O)NCC(=O)N[C@H](C(=O)N[C@@H](C)C(=O)N[C@@H](CCCCN)C(=O)N[C@@H](CC(N)=O)C(=O)N[C@@H](CC(C)C)C(=O)N[C@@H](C)C(=O)NCC(=O)N[C@@H](CCCCN)C(=O)N[C@@H](CC(C)C)C(=O)N[C@@H](CC(C)C)C(=O)N[C@@H](CC(=O)O)C(=O)N[C@@H](CCC(=O)O)C(=O)N[C@@H](CC(C)C)C(=O)N[C@@H](CCCCN)C(=O)N[C@H]1CSSC[C@@H](C(=O)O)NC(=O)CNC(=O)[C@H]([C@@H](C)O)NC(=O)[C@H]([C@@H](C)CC)NC(=O)[C@H](CCCCN)NC1=O)C(C)C)C(C)C` [GILSSFKGVAKGVAKNLAGKLLDELKCKITGC], the MIC was no less than 40 µM in [10]; 5 µM (≈ 16.3 µg/mL) in test [11]; 5 µM (≈ 16.3 µg/mL) in test [12]; 20 µM (≈ 65.2 µg/mL) in test [13]; 20 µM (≈ 65.2 µg/mL) in [14]; no less than 40 µM in test [15]. The MIC in [4] is 5 µM (≈ 16.3 µg/mL); in test [16], greater than 40 µM; in test [17], 10 µM (≈ 32.6 µg/mL).
Turning to `C[C@H](NC(=O)[C@H](C)NC(=O)[C@H](C)NC(=O)[C@H](Cc1ccc(O)cc1)NC(=O)[C@H](C)NC(=O)[C@H](C)NC(=O)[C@H](C)NC(=O)[C@H](CCCCN)NC(=O)[C@@H](N)CCCCN)C(=O)N[C@@H](C)C(=O)N[C@@H](C)C(=O)N[C@@H](Cc1ccc(O)cc1)C(=O)N[C@@H](C)C(=O)N[C@@H](C)C(=O)N[C@@H](Cc1c[nH]c2ccccc12)C(=O)N[C@@H](C)C(=O)N[C@@H](C)C(=O)N[C@@H](Cc1ccc(O)cc1)C(=O)N[C@@H](C)C(=O)N[C@@H](C)C(=O)N[C@@H](C)C(=O)N[C@@H](CCCCN)C(=O)N[C@@H](CCCCN)C(=O)N[C@@H](CCCCN)C(=O)N[C@@H](CCCCN)C(N)=O` [KKAAAYAAAAAYAAWAAYAAAKKKK], the MIC against Escherichia coli DC2 is 16 µM (≈ 40.4 µg/mL); against Escherichia coli UB1005 it was no less than 32 µM; in test [18], 0.25 µM (≈ 0.632 µg/mL); in test [19], 8 µM (≈ 20.2 µg/mL).
For the compound `CC(C)C[C@H](NC(=O)[C@H](Cc1c[nH]c2ccccc12)NC(=O)[C@H](CCCCN)NC(=O)[C@H](CC(C)C)NC(=O)[C@@H](N)CC(C)C)C(=O)N[C@@H](CCCCN)C(=O)N[C@@H](CCCCN)C(N)=O` [LLKWLKK], the MIC in [20] was no less than 215 µM; in [21], no less than 108 µM; in [12], greater than 215 µM; in test [22], 26.9 µM (≈ 25 µg/mL); in [23], no less than 215 µM; in test [2], no less than 108 µM. The MIC in test [24], in test [4] and in test [25] was greater than 215 µM each time.
Turning to `CC[C@H](C)[C@H](NC(=O)[C@H](CCCCN)NC(=O)[C@H](C)NC(=O)CNC(=O)[C@@H](NC(=O)[C@@H](N)CO)[C@@H](C)CC)C(=O)N[C@@H](CC(C)C)C(=O)NCC(=O)NCC(=O)N[C@H](C(=O)N[C@@H](CCCCN)C(=O)N[C@H](C(=O)N[C@@H](Cc1ccccc1)C(=O)N[C@@H](Cc1ccccc1)C(=O)N[C@@H](CCCCN)C(=O)NCC(=O)N[C@@H](C)C(=O)N[C@@H](CC(C)C)C(=O)N[C@@H](CCCCN)C(=O)N[C@@H](CCC(=O)O)C(=O)N[C@@H](CC(C)C)C(=O)N[C@@H](C)C(=O)N[C@@H](Cc1ccccc1)C(=O)N[C@H](C(=O)N[C@@H](Cc1ccc(O)cc1)C(=O)N[C@@H](CC(C)C)C(=O)N[C@@H](CCC(N)=O)C(N)=O)[C@@H](C)O)[C@@H](C)O)C(C)C` [SIGAKILGGVKTFFKGALKELAFTYLQ], the MIC was 12.9 µM (≈ 37.5 µg/mL) in test [1], no less than 34.5 µM in [2], no less than 34.5 µM in [3] and greater than 34.5 µM in test [4].
